Experimental data as given in ChEMBL document CHEMBL1153245, “A profile of the in vitro anti-tumor activity of imidazolium-based ionic liquids” (2010).

What was measured:
Type in all cases: functional
HOP-92 = test: Anticancer activity against human HOP92 cells after 48 hrs by sulforhodamine B assay; settings: Homo sapiens, HOP-92, 48 h
NCI-H23 = test: Anticancer activity against human NCI-H23 cells after 48 hrs by sulforhodamine B assay; settings: Homo sapiens, NCI-H23, 48 h
U-251 [1] = test: Anticancer activity against human U251 cells assessed cell growth at 10 uM after 48 hrs by sulforhodamine B assay relative to control
786-0 = test: Anticancer activity against human 786-0 cells after 48 hrs by sulforhodamine B assay; settings: Homo sapiens, 786-0, 48 h
UACC-257 = test: Anticancer activity against human UACC257 cells assessed cell growth at 10 uM after 48 hrs by sulforhodamine B assay relative to control
U-251 [2] = test: Anticancer activity against human U251 cells after 48 hrs by sulforhodamine B assay; settings: Homo sapiens, U-251, 48 h
KM12 = test: Anticancer activity against human KM12 cells after 48 hrs by sulforhodamine B assay; settings: Homo sapiens, KM12, 48 h
BT-549 [3] = test: Anticancer activity against human BT549 cells assessed cell growth at 10 uM after 48 hrs by sulforhodamine B assay relative to control
DU-145 = test: Anticancer activity against human DU145 cells after 48 hrs by sulforhodamine B assay; settings: Homo sapiens, DU-145, 48 h
CAKI-1 = test: Anticancer activity against human Caki1 cells after 48 hrs by sulforhodamine B assay; settings: Homo sapiens, CAKI-1, 48 h
SN12C = test: Anticancer activity against human SN12C cells after 48 hrs by sulforhodamine B assay; settings: Homo sapiens, SN12C, 48 h
NCI-H460 = test: Anticancer activity against human NCI-H460 cells after 48 hrs by sulforhodamine B assay; settings: Homo sapiens, NCI-H460, 48 h
OVCAR-3 = test: Anticancer activity against human OVCAR-3 cells after 48 hrs by sulforhodamine B assay; settings: Homo sapiens, OVCAR-3, 48 h
SF-295 = test: Anticancer activity against human SF295 cells after 48 hrs by sulforhodamine B assay; settings: Homo sapiens, SF-295, 48 h
BT-549 [4] = test: Anticancer activity against human BT549 cells after 48 hrs by sulforhodamine B assay; settings: Homo sapiens, BT-549, 48 h
OVCAR-8 = test: Anticancer activity against human OVCAR8 cells after 48 hrs by sulforhodamine B assay; settings: Homo sapiens, OVCAR-8, 48 h
ACHN = test: Anticancer activity against human ACHN cells after 48 hrs by sulforhodamine B assay; settings: Homo sapiens, ACHN, 48 h
SNB-75 = test: Anticancer activity against human SNB75 cells after 48 hrs by sulforhodamine B assay; settings: Homo sapiens, SNB-75, 48 h
LOX IMVI = test: Anticancer activity against human LOXIMVI cells after 48 hrs by sulforhodamine B assay; settings: Homo sapiens, LOX IMVI, 48 h
UACC-62 = test: Anticancer activity against human UACC62 cells after 48 hrs by sulforhodamine B assay; settings: Homo sapiens, UACC-62, 48 h
HL-60(TB) = test: Anticancer activity against human HL-60(TB) cells after 48 hrs by sulforhodamine B assay; settings: Homo sapiens, HL-60, 48 h
SNB-19 = test: Anticancer activity against human SNB19 cells assessed cell growth at 10 uM after 48 hrs by sulforhodamine B assay relative to control
SK-MEL-2 = test: Anticancer activity against human SK-MEL-2 cells assessed cell growth at 10 uM after 48 hrs by sulforhodamine B assay relative to control
NCI/ADR-RES = test: Anticancer activity against human NCI/ADR-RES cells after 48 hrs by sulforhodamine B assay; settings: Homo sapiens, NCI/ADR-RES, 48 h
MDA-MB-468 = test: Anticancer activity against human MDA-MB-468 cells assessed cell growth at 10 uM after 48 hrs by sulforhodamine B assay relative to control
SK-MEL-28 = test: Anticancer activity against human SK-MEL-28 cells assessed cell growth at 10 uM after 48 hrs by sulforhodamine B assay relative to control
CCRF-CEM = test: Anticancer activity against human CCRF-CEM cells after 48 hrs by sulforhodamine B assay; settings: Homo sapiens, CCRF-CEM, 48 h
UO-31 = test: Anticancer activity against human UO31 cells after 48 hrs by sulforhodamine B assay; settings: Homo sapiens, UO-31, 48 h
MCF7 [5] = test: Anticancer activity against human MCF7 cells after 48 hrs by sulforhodamine B assay; settings: Homo sapiens, MCF7, 48 h
EKVX = test: Anticancer activity against human EKVX cells after 48 hrs by sulforhodamine B assay; settings: Homo sapiens, EKVX, 48 h
MDA-MB-231 = test: Anticancer activity against human MDA-MB-231 cells after 48 hrs by sulforhodamine B assay; settings: Homo sapiens, MDA-MB-231, 48 h
MCF7 [6] = test: Anticancer activity against human MCF7 cells assessed cell growth at 10 uM after 48 hrs by sulforhodamine B assay relative to control
MDA-MB-435 = test: Anticancer activity against human MDA-MB-435 cells assessed cell growth at 10 uM after 48 hrs by sulforhodamine B assay relative to control
SK-MEL-5 = test: Anticancer activity against human SK-MEL-5 cells assessed cell growth at 10 uM after 48 hrs by sulforhodamine B assay relative to control
NCI-H322M = test: Anticancer activity against human NCI-H322M cells after 48 hrs by sulforhodamine B assay; settings: Homo sapiens, NCI-H322M, 48 h
HT-29 [7] = test: Anticancer activity against human HT-29 cells after 48 hrs by sulforhodamine B assay; settings: Homo sapiens, HT-29, 48 h
SW-620 = test: Anticancer activity against human SW620 cells after 48 hrs by sulforhodamine B assay; settings: Homo sapiens, SW-620, 48 h
HT-29 [8] = test: Anticancer activity against human HT-29 cells assessed cell growth at 10 uM after 48 hrs by sulforhodamine B assay relative to control
NCI-H226 = test: Anticancer activity against human NCI-H226 cells assessed cell growth at 10 uM after 48 hrs by sulforhodamine B assay relative to control
HCT-15 = test: Anticancer activity against human HCT15 cells assessed cell growth at 10 uM after 48 hrs by sulforhodamine B assay relative to control
Malme-3M = test: Anticancer activity against human MALME-3M cells assessed cell growth at 10 uM after 48 hrs by sulforhodamine B assay relative to control
[9] = read-out: LC50 (the source's name)

CCCCCCCCCCCCCCCCCC[n+]1ccn(C)c1.O=S(=O)([N-]S(=O)(=O)C(F)(F)F)C(F)(F)F
GI50 (HOP-92): 350 nM | CC50 (HOP-92; [9]): > 100 µM | GI50 (NCI-H23): 407 nM | CC50 (NCI-H23; [9]): 7.7 µM | Activity (U-251 [1]): -63.9% | GI50 (786-0): 952 nM | LC50 (50% lethal concentration) (786-0): > 100 µM | Activity (UACC-257): -47.9% | GI50 (U-251 [2]): 397 nM | CC50 (U-251 [2]; [9]): 3.97 µM | GI50 (KM12): 454 nM | CC50 (KM12; [9]): 5.46 µM | Activity (BT-549 [3]): -54.97% | GI50 (DU-145): 792 nM | CC50 (DU-145; [9]): 4.69 µM | GI50 (CAKI-1): 263 nM | LC50 (CAKI-1): 6.72 µM | GI50 (SN12C): 1250 nM | LC50 (SN12C): 5.72 µM | GI50 (NCI-H460): 663 nM | LC50 (NCI-H460): 5.24 µM | GI50 (OVCAR-3): 442 nM | LC50 (50% lethal concentration) (OVCAR-3): 4.71 µM | GI50 (SF-295): 484 nM | CC50 (SF-295; [9]): 6.61 µM | GI50 (BT-549 [4]): 1060 nM | CC50 (BT-549 [4]; [9]): 5.95 µM | GI50 (OVCAR-8): 913 nM | LC50 (OVCAR-8): > 100 µM | GI50 (ACHN): 920 nM | LC50 (ACHN): 4.78 µM | GI50 (SNB-75): 530 nM | CC50 (SNB-75; [9]): 5.71 µM | GI50 (LOX IMVI): 406 nM | CC50 (LOX IMVI; [9]): 5.24 µM | GI50 (UACC-62): 1040 nM | LC50 (UACC-62): 5.1 µM | GI50 (HL-60(TB)): 293 nM | CC50 (HL-60(TB); [9]): > 100 µM | Activity (SNB-19): -68% | Activity (SK-MEL-2): -51.69% | GI50 (NCI/ADR-RES): 1240 nM | LC50 (NCI/ADR-RES): 9.41 µM | Activity (MDA-MB-468): -20.4% | Activity (SK-MEL-28): -52.79% | GI50 (CCRF-CEM): 458 nM | LC50 (CCRF-CEM): > 100 µM | GI50 (UO-31): 1480 nM | LC50 (UO-31): > 100 µM | GI50 (MCF7 [5]): 1000 nM | LC50 (50% cell kill) (MCF7 [5]): 5.52 µM | GI50 (EKVX): 673 nM | CC50 (EKVX; [9]): 5.76 µM | GI50 (MDA-MB-231): 1040 nM | CC50 (MDA-MB-231; [9]): 5.93 µM | Activity (MCF7 [6]): 6.12% | Activity (MDA-MB-435): -70.83% | Activity (SK-MEL-5): -74.13% | GI50 (NCI-H322M): 1520 nM | LC50 (NCI-H322M): 6.4 µM | GI50 (HT-29 [7]): 378 nM | CC50 (HT-29 [7]; [9]): 9.13 µM | GI50 (SW-620): 520 nM | LC50 (SW-620): 6.48 µM | Activity (HT-29 [8]): -36.79% | Activity (NCI-H226): -61.74% | Activity (HCT-15): -54.83% | Activity (Malme-3M): -49.87%
